Experimental data taken from patent publication US20240300927A1, “AMIDES AS CBL-B INHIBITORS” (Genentech, Inc., priority 2021, published 2024).

Experiments:
[1] = target: c-Cbl (Homo sapiens (Human), UniProt P22681); assay: C-cbl LCK Ub TR-FRET assay (C-cbl Lck HTRF); format: biochemical
Protocol: (§1) Compounds were 3-fold serially diluted in DMSO in a 384-well polypropylene plate (#P-05525-BC; Labcyte) to generate a source plate with 10 concentrations of each compound, top concentration=2 mM. 80 nL of DMSO or compounds were transferred to each well of a black 384-well ProxiPlate (#6008260; PerkinElmer) using a Labcyte Echo. 1× assay buffer (50 mM HEPES pH7.0, 100 mM NaCl, 0.01% BSA, 0.01% Triton-X100, 1 mM DTT), 2× enzyme solution (16 nM Biotin-Cbl-b or 12 nM Biotin-c-Cbl in 1× assay buffer), 2× kinase mixture (120 nM His-LCK, 1 mM ATP, 10 mM MgCl2 in assay buffer) and 2.33× detection mixture (4.66× solution 1: 163 nM Anti-HA-D2 antibody (#610HADAB; PerkinElmer), 27.96 nM Streptavidin-EU (#AD0062; PerkinElmer), 1.398 mM EDTA in 1× assay buffer+4.66× solution 2: 2.796 μM UBE2D2/Methylated-HA-Ubiquitin thioester adduct (BostonBiochem) in 1× assay buffer) were prepared. 4 μL of 2× enzyme solution was added to each well containing compound, briefly centrifuged to mix, and incubated for 60 min at room temperature. 4 μL of 2× kinase mixture was added, briefly centrifuged to mix, and incubated for 90 min. at room temperature. 6 μL of detection mixture was added to all wells and briefly centrifuged before incubating for 20 min at room temperature. Plates were read for TR-FRET using an Envision at excitation 340 nm, emission at 615 and 665 nm, 4 flashes per well. IC50 was generated using no LCK as the low control and DMSO as the high control.
(§2) Cbl-b Lck HTRF data in Table 3 is measured according to Example 25 herein; C-cbl Lck HTRF data is measured according to Example 25 herein.
(§3) SPR and the LCK biochemical assay are orthogonal assays: SPR is a protein binding assay while the LCK assay is an enzyme activity assay. SPR measures compound binding affinity to CBL-B/C-CBL, whereas LCK assay measures compound inhibition of CBL-B/C-CBL ubiquitin transfer activity.

[2] = target: Cbl-b (Homo sapiens (Human), UniProt Q13191); assay: Cbl-b LCK Ub TR-FRET assay (Cbl-b Lck HTRF); format: biochemical; conditions: for (fold-selectivity): Cbl-b and C-Cbl selectivity, Lck HTRF; for IC50: read-out: Cbl-b Lck HTRF IC50
Protocol: as §1, §2, §3

Chain of c-Cbl (P22681 47-435): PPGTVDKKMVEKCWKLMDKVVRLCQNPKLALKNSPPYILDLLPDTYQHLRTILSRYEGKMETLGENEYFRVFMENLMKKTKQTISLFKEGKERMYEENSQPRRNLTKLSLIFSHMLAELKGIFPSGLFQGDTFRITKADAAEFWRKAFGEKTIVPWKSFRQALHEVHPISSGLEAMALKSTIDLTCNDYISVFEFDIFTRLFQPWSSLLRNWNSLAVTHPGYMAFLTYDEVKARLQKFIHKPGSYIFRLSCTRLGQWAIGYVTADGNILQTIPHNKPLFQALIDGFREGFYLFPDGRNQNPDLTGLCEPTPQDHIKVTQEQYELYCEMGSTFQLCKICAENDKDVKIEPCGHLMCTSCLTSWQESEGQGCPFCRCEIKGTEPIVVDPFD
Chain of Cbl-b (Q13191 40-426): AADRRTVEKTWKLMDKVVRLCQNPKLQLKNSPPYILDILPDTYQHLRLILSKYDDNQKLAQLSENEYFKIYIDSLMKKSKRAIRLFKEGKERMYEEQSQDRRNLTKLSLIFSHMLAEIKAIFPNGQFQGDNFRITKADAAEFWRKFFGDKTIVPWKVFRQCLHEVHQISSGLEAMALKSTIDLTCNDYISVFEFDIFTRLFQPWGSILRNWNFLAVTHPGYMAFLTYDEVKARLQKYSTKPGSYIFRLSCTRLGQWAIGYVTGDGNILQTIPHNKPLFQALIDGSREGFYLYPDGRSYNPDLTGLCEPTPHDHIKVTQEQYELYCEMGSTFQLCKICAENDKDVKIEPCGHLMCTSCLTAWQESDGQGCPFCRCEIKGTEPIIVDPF

Compound | IC50 [1] [nM] | (fold-selectivity) [2] | IC50 [2] [nM]
C[C@@H](c1cc(C(=O)Nc2cccc(C3(Cc4nncn4C)COC3)c2)nc(C(F)(F)F)c1)N1CC(F)C1 [Compound 1, (S)-4-(1-(3-fluoroazetidin-1-yl)ethyl)-N-(3-(3-((4-methyl-4H-1,2,4-triazol-3-yl)methyl)oxetan-3-yl)phenyl)-6-(trifluoromethyl)picolinamide] | 250 | (2.2x) | 110
C[C@H](c1cc(C(=O)Nc2cccc(C3(Cc4nncn4C)COC3)c2)nc(C(F)(F)F)c1)N1CC(F)C1 [Compound 2, (R)-4-(1-(3-fluoroazetidin-1-yl)ethyl)-N-(3-(3-((4-methyl-4H-1,2,4-triazol-3-yl)methyl)oxetan-3-yl)phenyl)-6-(trifluoromethyl)picolinamide] | 370 | (1.7x) | 220
C[C@@H](c1cc(C(=O)Nc2cccc(C3(Cc4nncn4C)COC3)c2)nc(C(F)(F)F)c1)N1CCC2(CC2)C1 [Compound 3, (S)-4-(1-(5-azaspiro[2.4]heptan-5-yl)ethyl)-N-(3-(3-((4-methyl-4H-1,2,4-triazol-3-yl)methyl)oxetan-3-yl)phenyl)-6-(trifluoromethyl)picolinamide] | 47 | (1.9x) | 25
C[C@H](c1cc(C(=O)Nc2cccc(C3(Cc4nncn4C)COC3)c2)nc(C(F)(F)F)c1)N1CCC2(CC2)C1 [Compound 4, (R)-4-(1-(5-azaspiro[2.4]heptan-5-yl)ethyl)-N-(3-(3-((4-methyl-4H-1,2,4-triazol-3-yl)methyl)oxetan-3-yl)phenyl)-6-(trifluoromethyl)picolinamide] | 130 | (1.9x) | 67
Cn1cnnc1[C@H](F)C1(c2cccc(NC(=O)c3cc(CN4CCC5(CC5)C4)cc(C4CC4)n3)c2)COC1 [Compound 5, (R)-4-(5-azaspiro[2.4]heptan-5-ylmethyl)-6-cyclopropyl-N-(3-(3-(fluoro(4-methyl-4H-1,2,4-triazol-3-yl)methyl)oxetan-3-yl)phenyl)picolinamide] | 30 | (1.6x) | 19
Cn1cnnc1[C@@H](F)C1(c2cccc(NC(=O)c3cc(CN4CCC5(CC5)C4)cc(C4CC4)n3)c2)COC1 [Compound 6, (S)-4-(5-azaspiro[2.4]heptan-5-ylmethyl)-6-cyclopropyl-N-(3-(3-(fluoro(4-methyl-4H-1,2,4-triazol-3-yl)methyl)oxetan-3-yl)phenyl)picolinamide] | 33 | (1.7x) | 20
Cn1cnnc1[C@H](F)C1(c2cccc(NC(=O)c3cc(CN4CC(C)(F)C4)cc(C4CC4)n3)c2)COC1 [Compound 7, (R)-6-cyclopropyl-N-(3-(3-(fluoro(4-methyl-4H-1,2,4-triazol-3-yl)methyl)oxetan-3-yl)phenyl)-4-((3-fluoro-3-methylazetidin-1-yl)methyl)picolinamide] | 31 | (1.8x) | 17
Cn1cnnc1[C@@H](F)C1(c2cccc(NC(=O)c3cc(CN4CC(C)(F)C4)cc(C4CC4)n3)c2)COC1 [Compound 8, (S)-6-cyclopropyl-N-(3-(3-(fluoro(4-methyl-4H-1,2,4-triazol-3-yl)methyl)oxetan-3-yl)phenyl)-4-((3-fluoro-3-methylazetidin-1-yl)methyl)picolinamide] | 60 | (2.0x) | 30

Now from value to compound:

IC50 [1] [nM] | (fold-selectivity) [2] | IC50 [2] [nM] | Compound
16000 | (1.4x) | 12000 | Cn1cnnc1[C@@H](F)C(C)(F)c1cccc(NC(=O)c2cc(CN3CC(C)(F)C3)nc(C3CC3)n2)c1 (stereo in doubt) [Compound 45, 2-cyclopropyl-N-(3-((1R,2S)-1,2-difluoro-1-(4-methyl-4H-1,2,4-triazol-3-yl)propan-2-yl)phenyl)-6-((3-fluoro-3-methylazetidin-1-yl)methyl)pyrimidine-4-carboxamide]
800 | (1.9x) | 420 | Cn1cnnc1[C@@H](F)C(C)(F)c1cccc(NC(=O)c2cc(CN3CC(C)(F)C3)nc(C3CC3)n2)c1 (stereo in doubt) [Compound 46, 2-cyclopropyl-N-(3-((1R,2R)-1,2-difluoro-1-(4-methyl-4H-1,2,4-triazol-3-yl)propan-2-yl)phenyl)-6-((3-fluoro-3-methylazetidin-1-yl)methyl)pyrimidine-4-carboxamide]
410 | (1.6x) | 260 | Cn1cnnc1CC1(c2cccc(NC(=O)c3cccc(C(F)(F)F)n3)c2)CC(F)(F)C1 [Compound 16, N-(3-(3,3-difluoro-1-((4-methyl-4H-1,2,4-triazol-3-yl)methyl)cyclobutyl)phenyl)-6-(trifluoromethyl)picolinamide]
280 | (1.1x) | 260 | Cn1cnnc1C[C@]1(c2cccc(NC(=O)c3cccc(C(F)(F)F)n3)c2)C[C@H](F)C1 [Compound 18, N-(3-((1R,3S)-3-fluoro-1-((4-methyl-4H-1,2,4-triazol-3-yl)methyl)cyclobutyl)phenyl)-6-(trifluoromethyl)picolinamide]
570 | (2.1x) | 280 | Cn1cnnc1C[C@]1(c2cccc(NC(=O)c3cccc(C(F)(F)F)n3)c2)C[C@@H](F)C1 [Compound 19, N-(3-((1S,3R)-3-fluoro-1-((4-methyl-4H-1,2,4-triazol-3-yl)methyl)cyclobutyl)phenyl)-6-(trifluoromethyl)picolinamide]
350 | (1.3x) | 270 | Cn1cnnc1[C@H](F)C1(c2cccc(NC(=O)c3cc(CN4CC(C)(F)C4)nc(C4CC4)n3)c2)COC1 [Compound 20, (R)-2-cyclopropyl-N-(3-(3-(fluoro(4-methyl-4H-1,2,4-triazol-3-yl)methyl)oxetan-3-yl)phenyl)-6-((3-fluoro-3-methylazetidin-1-yl)methyl)pyrimidine-4-carboxamide]
670 | (1.3x) | 510 | Cn1cnnc1[C@@H](F)C1(c2cccc(NC(=O)c3cc(CN4CC(C)(F)C4)nc(C4CC4)n3)c2)COC1 [Compound 21, 2-cyclopropyl-6-[(3-fluoro-3-methyl-azetidin-1-yl)methyl]-N-[3-[3-[(S)-fluoro-(4-methyl-1,2,4-triazol-3-yl)methyl]oxetan-3-yl]phenyl]pyrimidine-4-carboxamide]
10 | (0.87x) | 12 | C[C@@H](c1cc(C(=O)Nc2cccc(C3([C@@H](F)c4nncn4C)COC3)c2)nc(C2CC2)c1)N1CCC2(CC2)C1 [Compound 22, 4-((S)-1-(5-azaspiro[2.4]heptan-5-yl)ethyl)-6-cyclopropyl-N-(3-(3-((R)-fluoro(4-methyl-4H-1,2,4-triazol-3-yl)methyl)oxetan-3-yl)phenyl)picolinamide]
47 | (0.94x) | 50 | C[C@H](c1cc(C(=O)Nc2cccc(C3([C@@H](F)c4nncn4C)COC3)c2)nc(C2CC2)c1)N1CCC2(CC2)C1 [Compound 23, 4-((R)-1-(5-azaspiro[2.4]heptan-5-yl)ethyl)-6-cyclopropyl-N-(3-(3-((R)-fluoro(4-methyl-4H-1,2,4-triazol-3-yl)methyl)oxetan-3-yl)phenyl)picolinamide]
58 | (0.92x) | 63 | C[C@@H](c1cc(C(=O)Nc2cccc(C3([C@H](F)c4nncn4C)COC3)c2)nc(C2CC2)c1)N1CCC2(CC2)C1 [Compound 24, 4-((S)-1-(5-azaspiro[2.4]heptan-5-yl)ethyl)-6-cyclopropyl-N-(3-(3-((S)-fluoro(4-methyl-4H-1,2,4-triazol-3-yl)methyl)oxetan-3-yl)phenyl)picolinamide]
20 | (1.0x) | 20 | C[C@H](c1cc(C(=O)Nc2cccc(C3([C@H](F)c4nncn4C)COC3)c2)nc(C2CC2)c1)N1CCC2(CC2)C1 [Compound 25, 4-((R)-1-(5-azaspiro[2.4]heptan-5-yl)ethyl)-6-cyclopropyl-N-(3-(3-((S)-fluoro(4-methyl-4H-1,2,4-triazol-3-yl)methyl)oxetan-3-yl)phenyl)picolinamide]
2200 | (1.5x) | 1500 | C[C@H](Cc1nncn1C)c1cccc(NC(=O)c2nc(C(F)(F)F)c(CN3CCC4(CC4)C3)[nH]2)c1 [Compound 26, (R)-5-(5-azaspiro[2.4]heptan-5-ylmethyl)-N-(3-(1-(4-methyl-4H-1,2,4-triazol-3-yl)propan-2-yl)phenyl)-4-(trifluoromethyl)-1H-imidazole-2-carboxamide]
